Reference: ChEMBL document CHEMBL1147947, “In vitro activity of novel dual action MDR anthranilamide modulators with inhibitory activity on CYP-450 (Part 2)” (Bioorg Med Chem, 2007)
Activity calls are given as the source filed them. The calls are words filed in the database; no cut-off is given here.

Experiments:
[1] = molecular target: Cytochrome P450 2C19 (Homo sapiens, UniProt P33261); assay: Inhibition of human CYP2C19 expressed in insect microsome after 30 mins; assay type: ADME, microsomes
Sequence of Cytochrome P450 2C19 (P33261 whole entry): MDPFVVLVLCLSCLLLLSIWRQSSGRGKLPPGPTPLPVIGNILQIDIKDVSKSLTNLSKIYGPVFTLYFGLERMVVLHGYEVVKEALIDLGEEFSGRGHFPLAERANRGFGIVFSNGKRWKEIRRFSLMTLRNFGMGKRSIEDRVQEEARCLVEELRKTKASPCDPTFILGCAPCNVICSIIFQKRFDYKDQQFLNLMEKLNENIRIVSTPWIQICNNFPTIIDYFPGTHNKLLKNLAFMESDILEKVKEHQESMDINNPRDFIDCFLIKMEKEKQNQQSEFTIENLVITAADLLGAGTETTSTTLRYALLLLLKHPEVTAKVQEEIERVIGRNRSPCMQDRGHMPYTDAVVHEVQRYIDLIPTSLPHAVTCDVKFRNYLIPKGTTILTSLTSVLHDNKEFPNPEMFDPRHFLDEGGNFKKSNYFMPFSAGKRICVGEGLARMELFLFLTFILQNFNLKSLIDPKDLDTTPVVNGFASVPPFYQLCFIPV

[2] = molecular target: T1, Cytochrome P450 2A6 (Homo sapiens, UniProt P11509); assay: Inhibition of human CYP2A6 expressed in insect microsome after 15 mins; assay type: ADME, microsomes
T1 sequence (P11509 whole entry): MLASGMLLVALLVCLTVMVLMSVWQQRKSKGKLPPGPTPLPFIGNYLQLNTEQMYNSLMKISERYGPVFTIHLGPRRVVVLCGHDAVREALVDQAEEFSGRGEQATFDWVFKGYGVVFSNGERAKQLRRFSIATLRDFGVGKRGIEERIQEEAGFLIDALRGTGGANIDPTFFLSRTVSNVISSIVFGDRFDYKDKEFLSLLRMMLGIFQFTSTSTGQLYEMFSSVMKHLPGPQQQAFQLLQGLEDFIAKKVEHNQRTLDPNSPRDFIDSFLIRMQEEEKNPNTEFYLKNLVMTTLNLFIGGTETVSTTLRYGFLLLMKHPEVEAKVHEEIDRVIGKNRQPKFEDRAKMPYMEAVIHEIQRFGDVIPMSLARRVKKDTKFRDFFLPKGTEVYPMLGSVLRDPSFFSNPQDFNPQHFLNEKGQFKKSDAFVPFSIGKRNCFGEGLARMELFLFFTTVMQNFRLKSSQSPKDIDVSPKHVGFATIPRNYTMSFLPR

[3] = molecular target: Cytochrome P450 2D6 (Homo sapiens, UniProt P10635); assay: Inhibition of human CYP2D6 expressed in insect microsome after 30 mins; assay type: ADME, microsomes
Sequence of Cytochrome P450 2D6 (P10635 whole entry): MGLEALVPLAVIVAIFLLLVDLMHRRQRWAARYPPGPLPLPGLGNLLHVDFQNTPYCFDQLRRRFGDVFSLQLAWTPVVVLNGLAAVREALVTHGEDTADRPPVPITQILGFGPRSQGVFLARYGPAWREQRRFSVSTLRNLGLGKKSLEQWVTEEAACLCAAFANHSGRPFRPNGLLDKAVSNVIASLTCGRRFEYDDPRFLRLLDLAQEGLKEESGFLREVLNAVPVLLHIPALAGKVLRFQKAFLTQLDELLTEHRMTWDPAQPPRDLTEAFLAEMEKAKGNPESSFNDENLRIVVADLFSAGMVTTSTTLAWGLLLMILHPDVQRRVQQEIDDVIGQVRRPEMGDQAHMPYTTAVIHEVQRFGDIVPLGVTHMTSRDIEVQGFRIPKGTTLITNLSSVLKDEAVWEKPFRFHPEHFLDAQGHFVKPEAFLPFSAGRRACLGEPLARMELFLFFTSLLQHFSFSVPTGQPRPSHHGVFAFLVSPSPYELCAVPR

[4] = molecular target: T2, Cytochrome P450 2C8 (Homo sapiens, UniProt P10632); assay: Inhibition of human CYP2C8 expressed in insect microsome after 30 mins; assay type: ADME, microsomes
T2 sequence (P10632 whole entry): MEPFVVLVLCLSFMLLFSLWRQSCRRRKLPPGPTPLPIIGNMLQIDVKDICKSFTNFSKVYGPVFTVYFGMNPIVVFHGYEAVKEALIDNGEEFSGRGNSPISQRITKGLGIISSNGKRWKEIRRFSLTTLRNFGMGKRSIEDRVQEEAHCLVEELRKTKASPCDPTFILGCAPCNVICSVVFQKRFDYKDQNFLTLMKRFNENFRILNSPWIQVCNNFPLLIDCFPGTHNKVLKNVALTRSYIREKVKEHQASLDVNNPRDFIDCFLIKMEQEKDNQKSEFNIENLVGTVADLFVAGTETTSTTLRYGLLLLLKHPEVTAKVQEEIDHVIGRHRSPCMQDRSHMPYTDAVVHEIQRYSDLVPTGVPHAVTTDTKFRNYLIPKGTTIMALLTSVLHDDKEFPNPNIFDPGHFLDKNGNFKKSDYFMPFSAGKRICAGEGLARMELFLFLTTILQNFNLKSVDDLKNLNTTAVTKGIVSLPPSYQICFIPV

[5] = molecular target: T3, Cytochrome P450 2B6 (Homo sapiens, UniProt P20813); assay: Inhibition of human CYP2B6 expressed in insect microsome after 30 mins; assay type: ADME, microsomes
T3 sequence (P20813 whole entry): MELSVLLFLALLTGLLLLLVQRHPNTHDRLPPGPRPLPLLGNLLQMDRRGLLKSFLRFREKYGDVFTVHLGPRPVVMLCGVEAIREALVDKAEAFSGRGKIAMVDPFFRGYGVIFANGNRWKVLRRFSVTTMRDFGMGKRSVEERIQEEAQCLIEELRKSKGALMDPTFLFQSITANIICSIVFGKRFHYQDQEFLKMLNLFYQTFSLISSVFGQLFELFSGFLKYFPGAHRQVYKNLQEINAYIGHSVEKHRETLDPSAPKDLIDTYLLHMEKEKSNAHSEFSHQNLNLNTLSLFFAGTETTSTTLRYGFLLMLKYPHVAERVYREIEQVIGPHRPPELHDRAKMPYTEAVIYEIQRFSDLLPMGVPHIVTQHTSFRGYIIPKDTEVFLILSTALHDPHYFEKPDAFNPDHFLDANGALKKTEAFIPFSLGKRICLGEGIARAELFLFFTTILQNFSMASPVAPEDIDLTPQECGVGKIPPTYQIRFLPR

[6] = molecular target: T4, Cytochrome P450 1A2 (Homo sapiens, UniProt P05177); assay: Inhibition of human CYP1A2 expressed in insect microsome after 15 mins; assay type: ADME, microsomes
T4 sequence (P05177 whole entry): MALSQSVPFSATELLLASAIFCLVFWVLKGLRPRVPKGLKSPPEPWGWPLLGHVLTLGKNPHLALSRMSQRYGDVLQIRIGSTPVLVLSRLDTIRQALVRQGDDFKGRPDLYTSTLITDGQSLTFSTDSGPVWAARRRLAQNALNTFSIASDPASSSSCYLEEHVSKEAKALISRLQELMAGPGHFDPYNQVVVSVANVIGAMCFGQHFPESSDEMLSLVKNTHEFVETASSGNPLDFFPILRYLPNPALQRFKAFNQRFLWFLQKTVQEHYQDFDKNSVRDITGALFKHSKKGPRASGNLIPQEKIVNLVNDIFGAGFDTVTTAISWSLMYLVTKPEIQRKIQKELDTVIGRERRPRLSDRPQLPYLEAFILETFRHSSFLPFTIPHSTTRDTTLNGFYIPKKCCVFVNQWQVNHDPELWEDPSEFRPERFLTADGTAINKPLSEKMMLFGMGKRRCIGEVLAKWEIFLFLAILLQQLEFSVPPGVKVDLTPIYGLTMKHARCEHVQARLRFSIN

[7] = molecular target: Cytochrome P450 2C9 (Homo sapiens, UniProt P11712); assay: Inhibition of human CYP2C9 expressed in insect microsome after 45 mins; assay type: ADME, microsomes
Sequence of Cytochrome P450 2C9 (P11712 whole entry): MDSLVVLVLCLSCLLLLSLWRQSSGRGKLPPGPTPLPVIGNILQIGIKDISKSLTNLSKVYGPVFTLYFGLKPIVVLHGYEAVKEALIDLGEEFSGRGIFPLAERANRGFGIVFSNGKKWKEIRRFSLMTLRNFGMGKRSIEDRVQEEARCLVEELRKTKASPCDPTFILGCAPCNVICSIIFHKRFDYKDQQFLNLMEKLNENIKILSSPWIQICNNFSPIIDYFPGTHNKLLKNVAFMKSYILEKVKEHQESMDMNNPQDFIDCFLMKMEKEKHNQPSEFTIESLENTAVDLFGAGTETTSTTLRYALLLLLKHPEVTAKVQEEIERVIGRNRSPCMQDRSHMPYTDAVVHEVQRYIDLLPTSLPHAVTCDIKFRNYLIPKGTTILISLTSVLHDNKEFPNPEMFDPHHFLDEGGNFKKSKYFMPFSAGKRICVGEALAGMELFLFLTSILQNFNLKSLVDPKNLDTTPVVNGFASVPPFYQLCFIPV

[8] = molecular target: Cytochrome P450 2E1 (Homo sapiens, UniProt P05181); assay: Inhibition of human CYP2E1 expressed in insect microsome after 45 mins; assay type: ADME, microsomes
Sequence of Cytochrome P450 2E1 (P05181 whole entry): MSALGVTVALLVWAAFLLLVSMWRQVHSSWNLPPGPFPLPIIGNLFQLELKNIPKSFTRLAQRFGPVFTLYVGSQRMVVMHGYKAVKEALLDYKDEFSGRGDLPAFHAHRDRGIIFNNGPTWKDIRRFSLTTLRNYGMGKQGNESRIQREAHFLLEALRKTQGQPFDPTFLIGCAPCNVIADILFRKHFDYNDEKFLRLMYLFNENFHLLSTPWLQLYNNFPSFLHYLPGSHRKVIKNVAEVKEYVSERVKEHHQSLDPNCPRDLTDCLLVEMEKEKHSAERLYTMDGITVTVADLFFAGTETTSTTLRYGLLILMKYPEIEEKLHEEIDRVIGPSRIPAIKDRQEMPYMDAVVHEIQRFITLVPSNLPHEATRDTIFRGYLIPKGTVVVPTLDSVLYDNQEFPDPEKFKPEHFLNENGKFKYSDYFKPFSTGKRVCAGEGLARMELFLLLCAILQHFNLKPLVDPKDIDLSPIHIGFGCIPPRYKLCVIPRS

[9] = molecular target: Cytochrome P450 3A4 (Homo sapiens, UniProt P08684); assay: Inhibition of human CYP3A4 expressed in insect microsome using 7-benzyloxy-4-trifluoromethylcoumarin substrate after 30 mins; assay type: ADME, microsomes
Sequence of Cytochrome P450 3A4 (P08684 whole entry): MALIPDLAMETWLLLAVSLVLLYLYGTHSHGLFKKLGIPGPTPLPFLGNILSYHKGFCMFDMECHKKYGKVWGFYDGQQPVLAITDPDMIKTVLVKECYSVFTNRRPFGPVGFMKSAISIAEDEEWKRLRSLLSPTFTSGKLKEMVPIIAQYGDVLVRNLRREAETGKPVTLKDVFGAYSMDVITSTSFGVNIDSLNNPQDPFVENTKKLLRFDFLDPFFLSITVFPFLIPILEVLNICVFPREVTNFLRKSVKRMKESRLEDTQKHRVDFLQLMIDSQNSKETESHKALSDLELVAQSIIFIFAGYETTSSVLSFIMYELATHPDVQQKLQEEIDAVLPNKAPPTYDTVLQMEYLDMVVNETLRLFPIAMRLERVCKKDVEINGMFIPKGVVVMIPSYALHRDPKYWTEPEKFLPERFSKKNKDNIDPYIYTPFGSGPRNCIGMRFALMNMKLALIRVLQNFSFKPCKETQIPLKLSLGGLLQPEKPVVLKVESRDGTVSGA

[10] = Growth inhibition of human CEM/VLB500 cells after 3 days by resazurin assay; assay type: functional; conditions: CEM/VLB500, 72 h
[11] = system: CEM/VLB500; assay: Growth inhibition of human CEM/VLB500 cells at 1 uM after 3 days by resazurin assay; assay type: functional, cell-based

Row | Compound | IC50 [1] [µM] | IC50 [2] [µM] | IC50 [3] [µM] | IC50 [4] [µM] | IC50 [5] [µM] | IC50 [6] [µM] | IC50 [7] [nM] | IC50 [8] [µM] | IC50 [9] [nM] | GI50 [10] [µM] | Activity [11]
1 | COc1ccc(CCN(C)CCNC(=O)c2ccccc2NC(=O)c2cnc3ccccc3c2)cc1OC | 14.7 | > 100 | > 100 | 5.82 | > 100 | > 100 | 2080 | > 100 | 1620 |  | 
2 | COc1ccc(CN2CCN(c3ccc(NC(=O)c4ccccc4NC(=O)c4cnc5ccccc5c4)cc3)CC2)cc1OC | 23 | > 100 | > 100 | 13.3 | > 100 | > 100 | > 10000 | > 100 | 20200 | > 15 | 
3 | O=C(Nc1ccccc1C(=O)N[C@@H]1CCCC[C@@H]1N1CCN(c2ccccc2)CC1)c1cnc2ccccc2c1 (racemic) |  |  |  |  |  |  |  |  |  | 11.5 | 
4 | COc1ccc(CCN(C)CCC[C@@](C#N)(c2ccc(OC)c(OC)c2)C(C)C)cc1OC |  |  |  |  |  |  |  |  |  | > 15 | 
5 | COc1ccc(CCN2CCC[C@@H]2CNC(=O)c2ccccc2NC(=O)c2cnc3ccccc3c2)cc1OC |  |  |  |  |  |  |  |  |  | > 15 | 
6 | COc1cc2c(cc1OC)CN(CCc1ccc(NC(=O)c3cc(OC)c(OC)cc3NC(=O)c3cnc4ccccc4c3)cc1)CC2 | > 10 | > 100 | 100 | 45.3 | > 100 |  | 7100 | > 100 |  | 13.5 | 
7 | COc1ccc(CCN2CCC[C@H]2CNC(=O)c2ccccc2NC(=O)c2cnc3ccccc3c2)cc1OC |  |  |  |  |  |  |  |  |  | > 15 | 
8 | COc1ccc(CN2CCN(c3ccc(NC(=O)c4cc(OC)c(OC)cc4NC(=O)c4cnc5ccccc5c4)cc3)CC2)cc1OC | 0.393 |  | 17.3 | 1.08 | 100 | 6.68 | 96.8 |  | 195 | ≥ 15 | inactive
